These results are taken from PubChem BioAssay (NCI).

Holding throughout (experiment): inhibition of tumour cell growth, NCI panel, 48 h
Assay [1] deals with NCI-H23 lung.
For assay [2], the system named is SNB-75 CNS.
For assay [3], the system named is DMS 114 small cell lung.
Assay [4] concerns MOLT-4 leukemia.
Assay [5] relates to DLD-1 colon.
Assay [6] deals with CCRF-CEM leukemia.
The test system of assay [7] is BT-549 breast.
In assay [8] the test system is HS 578T breast.
The subject of assay [9] is MDA-MB-435.
Assay [10] relates to M19-MEL melanoma.
The subject of assay [11] is HOP-18 NSCLC.

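Step 1: Grow cells in 96-well plates. Step 2: Expose to compound for 48 hours at 5 concentrations. Step 3: Interpolate endpoints linearly; if unreached, use highest concentration. GI50 = concentration required for 50% inhibition of growth. The concentration for full growth arrest is given as TGI.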

For `C=C1c2[nH]c3c([N+](=O)[O-])c(OC)ccc3c2CCN1C(C)=O`, the TGI was more than 100 µM in assay [1]; 42.5 µM in assay [2]; more than 100 µM in assay [3]; more than 100 µM in assay [4]; 38.4 µM in [5]; more than 100 µM in [6].

Take `O=C(Nc1cccc(NC(=O)Nc2cc(C(F)(F)F)ccc2Cl)c1)Nc1cc(C(F)(F)F)ccc1Cl`: the GI50 in assay [1] is 2.61 µM; in [2], 1.56 µM; in assay [7] it was 5.55 µM; in assay [8] it was 2.64 µM; in assay [9] it was 5.56 µM; in assay [4] it was 5.19 µM. For the same molecule, the GI50 in assay [6] was 3.21 µM. Also, the TGI in assay [1] is 15.9 µM; in [2], 4.51 µM; in assay [7] it was 38.4 µM; in assay [8], 8.81 µM; in [9] it was more than 100 µM; in [4] it was more than 100 µM. In addition, in [6], the TGI stood at 71.7 µM.

Take `COc1ccc(/C=N/N=C(\N)NO)c(OC)c1`: the TGI in assay [1], in [10], in [3], in assay [4], in assay [5] and in assay [6] was more than 100 µM in each case. In assay [11], the TGI is more than 100 µM.

As to `COc1ccc(/C=C2\S/C(=N/Nc3nc(-c4ccccc4)cs3)NC2=O)cc1OC`, the TGI in assay [1] was determined as 69.4 µM; in [2] it was 64.4 µM; in assay [7] it was 81.3 µM; in assay [8], 83.3 µM; in [9] it was 75 µM; in [4] it was 20.6 µM. Besides, in assay [6], the TGI amounted to 22.3 µM.

With `CC#CC(=O)SCCNC(=O)CC`, the TGI in assay [1] is more than 10 µM; in assay [2], more than 10 µM; in assay [7] it was more than 10 µM; in assay [8], more than 10 µM; in assay [9], more than 10 µM; in [4], more than 8.86 µM. In assay [6], this molecule displayed a TGI of more than 8.72 µM.

On to `COc1ccc(C(=O)C(c2ccc(OC)cc2)C2(O)C(=O)Nc3c2ccc(Cl)c3C)cc1` (stereo unspecified), for which the TGI in assay [1], in [2], in assay [10], in assay [3], in assay [4] and in [6] was more than 100 µM throughout. The molecule further showed a TGI in assay [11] of more than 100 µM.

On to `C1=C2/CC[C@H](Sc3ccccc3)[C@H]2C2(CCCCC/1)OCCO2`, for which the TGI in assay [1] is more than 100 µM; in assay [2], more than 100 µM; in [10], 67 µM; in [5], more than 100 µM; in [6] it was 66.4 µM; in [11], more than 100 µM.

With `CCN(CC)Cc1ccc(Nc2nccc(-c3cnn4ncccc34)n2)cc1`, the GI50 in assay [1] was 0.0217 µM; in assay [2], 0.0114 µM; in assay [7] it was 0.0377 µM; in assay [8] it was 0.0164 µM; in assay [9], 0.0232 µM; in assay [4], 0.0388 µM. Besides, the GI50 in assay [6] was 0.0148 µM. The TGI came to 0.126 µM in assay [1]; 0.0529 µM in assay [2]; 0.139 µM in assay [7]; 0.117 µM in assay [8]; 0.0945 µM in assay [9]; 0.144 µM in [4]. Moreover, in assay [6], the TGI was more than 25 µM.

Turning to `C1CN(SSN2CCOCC2)CCO1`, the GI50 is 22.5 µM in assay [1]; 44.1 µM in assay [2]; 30 µM in assay [7]; 30.3 µM in assay [8]; 33.8 µM in assay [9]; 47.3 µM in assay [4]. In addition, the GI50 in [6] is 43.9 µM. Besides, the TGI was 55.9 µM in assay [1]; more than 100 µM in assay [2]; more than 100 µM in [7]; more than 100 µM in assay [8]; more than 100 µM in assay [9]; more than 100 µM in assay [4]. Also, the TGI in [6] is more than 100 µM.

Take `O=C(NN1C(=O)CSC12CCCC2)c1[nH]c2ccc(Br)cc2c1-c1ccccc1`: the GI50 is 41.1 µM in assay [1]; 46.1 µM in [2]; 93.5 µM in assay [7]; 96.8 µM in assay [8]; 23.4 µM in assay [9]; 21.9 µM in assay [4]. For the same molecule, in [6], the GI50 is 40.1 µM. The TGI is more than 100 µM in [1]; more than 100 µM in [2]; more than 100 µM in assay [7]; more than 100 µM in assay [8]; 63.7 µM in assay [9]; 90.4 µM in [4]. This molecule also returned a TGI in assay [6] of more than 100 µM.

For the molecule `C/C=C(\C)C(=O)O[C@H]1C=CC(=O)O[C@@H]1CC[C@H](O)[C@H](C)O`, the GI50 in [1] was 69.1 µM; in assay [2] it was 33.3 µM; in assay [7], 27.3 µM; in [8] it was 34.8 µM; in [9], 34.6 µM; in assay [4] it was 1.99 µM. In addition, the GI50 in [6] was 21.3 µM. In addition, the TGI in assay [1] is more than 100 µM; in assay [2] it was 78.9 µM; in assay [7], 71.2 µM; in [8], 94.2 µM; in assay [9], more than 100 µM; in assay [4] it was more than 100 µM. The TGI in [6] was 66.2 µM.

As for `C=C1C(=O)OC2C1C(OC(=O)/C(C)=C/C)CC(O)(CCl)C1C(O)C3OC3(C)C21O` (stereo unspecified), the TGI in [1], in assay [2], in [7], in [8], in assay [9] and in assay [4] was more than 50 µM in each case. This molecule also gave a TGI in [6] of more than 50 µM.

On to `O=c1nc2oc3ccc4ccccc4c3cc-2s1`, for which the GI50 in assay [1] is 28.7 µM; in [2], 0.476 µM; in assay [7], 4.35 µM; in [8], 0.528 µM; in assay [9] it was 0.259 µM; in [4] it was 1.81 µM. In addition, the GI50 in assay [6] was 0.989 µM. The TGI in assay [1] was more than 100 µM; in assay [2], 10.1 µM; in [7], more than 100 µM; in assay [8], more than 61.8 µM; in [9] it was 0.783 µM; in assay [4], more than 100 µM. Further, the TGI in assay [6] was more than 100 µM.
